The text below walks through data of patent US20110123512A1, “METHOD OF REGULATING THE HEAT SHOCK RESPONSE” (priority 2008, published 2011).

“Also recorded” adds a separate entry of the source.

Experiment [1] has as its system hsp70 (C12C8.1) mRNA. Nature of the experiment: cadmium stress: hsp70 (C12C8.1) induction. In kind it is in vivo, C. elegans. The note with it: 50 μM. The procedure: (§1) mRNA was prepared using the “ABSOLUTELY RNA® Nanoprep Kit” (Stratagene, Catalog #400753). The manufacturer's protocol was adapted to achieve maximal lysis of worms. Briefly, 5-10 adult animals were picked either from the control or experimental plates into 100 μl of buffer made up by mixing 7 μl 13-ME (instead of the recommended 0.7 μl 13-ME), with 100 μl Lysis Buffer provided by the manufacturer. The suspension was subjected to numerous cycles of freeze-thawing in liquid nitrogen and vortexing until the animals were completely lysed. RNA was then purified as detailed in the manufacturer's protocol. mRNA was reverse transcribed using the ISCRIPT™ cDNA Synthesis Kit (Bio-Rad, Catalog #170-8891). Quantitative PCR was performed using iQ™ SYBR® Green Supermix (Bio-Rad, Catalog #170-8880), in the iCycler system (Bio-Rad) at a 25 μl sample volume, in thin wall 200 μl PCR plates (Cat. No. 223-9441) sealed with the optical quality sealing tape (Cat. No. 223-9444).
(§2) The relative amounts of hsp mRNA were determined using the Comparative CT Method for quantitation (14). The levels of hsp mRNA levels within an experiment were determined relative to actin mRNA, which was used as the internal control. The range of input of RNA was determined using serial dilutions of the cDNA that yielded a CT value of <30, for both the target cDNA and actin was used in all experiments. […]

Experiment [2] deals with cadmium responsive genes, cdr-1 and mtl-1. Nature of the experiment: cadmium stress: cadmium-responsive gene induction. The format is in vivo, C. elegans. The protocol:
as §1
The relative amounts of hsp mRNA were determined using the Comparative CT Method for quantitation (14). The levels of hsp mRNA levels within an experiment were determined relative to actin mRNA, which was used as the internal control. The range of input of RNA was determined using serial dilutions of the cDNA that yielded a CT value of <30, for both the target cDNA and actin was used in all experiments. This typically corresponded to 1 μl of the total cDNA obtained per sample. CT values were obtained in triplicate for each sample (technical triplicate), and three samples were used per experiment. Each experiment was then repeated a minimum of three times. All relative changes of hsp mRNA in the mutant strains were normalized to maximal wild-type values, except where otherwise noted.
Sterile-filtered cadmium chloride was added to a final concentration of 50 μM to standard, autoclaved, NGM medium, and used to make plates. OP50 was seeded onto the plates as described above. […] These animals were then harvested for quantitative RT-PCR. […]

In experiment [3] the test system is hsp70 (C12C8.1) mRNA. The experiment in a line: effect of dauer pheromone on the heat shock response. The format is in vivo, C. elegans. The protocol:
C. elegans strains were grown as described above, and all animals were heat shocked at a population density of 10 adults per plate. Sufficient N values were obtained by repeating each heat shock experiment a minimum of 3 times, with 3 samples of 10 animals per plate, per experiment. Heat shock at 30° C. or 34° C., for 15 minutes on agarose plates was achieved by sealing plates with parafilm, further sealing within zip-lock bags, and immersing in a water bath equilibrated to the appropriate temperature. Following heat shock, the parafilm was removed and the animals were allowed to recover at 20° C. for the course of the experiment.
mRNA was prepared using the “ABSOLUTELY RNA® Nanoprep Kit” (Stratagene, Catalog #400753). […] Quantitative PCR was performed using iQ™ SYBR® Green Supermix (Bio-Rad, Catalog #170-8880), in the iCycler system (Bio-Rad) at a 25 μl sample volume, in thin wall 200 μl PCR plates (Cat. No. 223-9441) sealed with the optical quality sealing tape (Cat. No. 223-9444).
as §2

Experiment [4] has as its system hsp70 (C12C8.1) expression. The experiment in a line: heat shock induction of hsp70 (C12C8.1) in worms anesthetized with volatile anesthetics. As to conditions: for hsp70 (C12C8.1) expression in somatic cells: wild-type animals exposed to VAs for the full duration of heat shock (34° C., 15 minutes), 2 hours after recovery; for fraction of animals expressing GFP (hsp70 (C12C8.1) promoter GFP reporter): wild-type animals, VAs during heat shock, 2 hours post-heat shock, control 100%. In kind it is in vivo, C. elegans.

The test system of experiment [5] is C. elegans. The experiment in a line: anesthesia: inhibition of movement and recovery. As to conditions: within the first 15 minutes following exposure; no death; 10 adults per plate. In kind it is in vivo. The protocol: The VA anesthetics used were 2-Bromo-2-chloro-1,1,1-trifluoroethane (Halothane, Fluka, catalog #16730) and Isoflurane (Webster Veterinary NDC#14043-220-05). VA anesthetics were delivered as follows: lids of 1.5 ml eppendorf tubes were cut off, VA was pipetted into the lids, and the lids containing VAs were placed onto plates containing 10 adult wild-type or gcy-8 animals grown as described, and the plates were immediately sealed with parafilm. To inhibit neuronal signaling during the course of heat shock, the VA containing lids were placed on plates 5 minutes prior to the heat shock, and retained during the heat shock treatment of 34° C. for 15 minutes. The lids were then removed 10 minutes post-heat shock during recovery at 20° C., when the plates had equilibrated to 20° C. To inhibit neuronal signaling following the administration of heat shock, animals were heat shocked, and then the lids containing the same volume of VA was placed onto plates 20 minutes post-heat shock, and removed after 30 minutes.
As has been described before, the effect of the VA is extremely variable in any given population of C. elegans (15, 16) and is also influenced by other environmental factors, such as population density, to which the animals are exposed (15). Therefore it was necessary to titrate the amount of VA used for each experiment. […]

Regarding `[Cl][Cd][Cl]` [cadmium, cadmium chloride], the “hsp70 (C12C8.1) mRNA further induction” value in experiment [1] (after 16 hours of exposure) is given as “more than 10 fold”. Further, the “hsp70 (C12C8.1) mRNA” value in experiment [1] (wild-type and gcy-8 mutant animals, 3 hours of exposure) was “similarly increased”. Moreover, the “expression of cdr-1 and mtl-1 upon exposure to cadmium” value in experiment [2] (gcy-8 (thermosensory deficient) adult animals) was “can induce”; in experiment [2] (osm-9 and ocr-2 mutant animals), “deficient in their ability to upregulate”. The “cdr-1 mRNA” value in experiment [2] (wild-type and gcy-8 mutant animals, 3 hours of exposure, 50 μM) was “similarly increased”.
In the case of `C[C@H](CCCCC(=O)O)O[C@@H]1O[C@@H](C)[C@H](O)C[C@H]1O` [dauer pheromone], the “amounts of hsp70 (C12C8.1) mRNA after heat shock” value was “induced even higher amounts” in experiment [3] (gcy-8 mutant animals exposed to dauer pheromone, compared with heat-shocked wild-type under optimal growth conditions) and “decreased” in experiment [3] (wild-type animals, high concentrations of dauer pheromone prior to or during heat shock (34° C., 15 minutes)).
Consider `FC(F)(F)C(Cl)Br` (stereo not shown) [halothane, 2-Bromo-2-chloro-1,1,1-trifluoroethane], for which, in experiment [4], the “hsp70 (C12C8.1) expression in somatic cells” value was “inhibition; also recorded: marked decrease” and the “fraction of animals expressing GFP (hsp70 (C12C8.1) promoter GFP reporter)” value worked out at 20%. Besides, in experiment [5], the “volume of VA that inhibited the movement of 100% of the animals on a plate” value lay within 5 to 15 µL.
On to `FC(F)OC(Cl)C(F)(F)F` (stereo not shown) [isoflurane, Isoflurane], for which, in experiment [4], the “hsp70 (C12C8.1) expression in somatic cells” value is “inhibition; also recorded: marked decrease” and the “fraction of animals expressing GFP (hsp70 (C12C8.1) promoter GFP reporter)” value was found to be 20%. The “volume of VA that inhibited the movement of 100% of the animals on a plate” value in experiment [5] fell in the range of 10 to 25 µL.
